IC50 data for 26 compounds are collected here from patent US20220363665A1, “QUINOLINE COMPOUNDS FOR THE TREATMENT OF AUTOIMMUNE DISEASE” (Hoffmann-La Roche Inc., priority 2019, published 2022).

For the test, the target named is T1, human TLR9 (Homo sapiens, UniProt Q9NR96).
T1 construct: host or cells: HEK293 (HEK-Blue hTLR9)
T1 sequence (Q9NR96 26-1032): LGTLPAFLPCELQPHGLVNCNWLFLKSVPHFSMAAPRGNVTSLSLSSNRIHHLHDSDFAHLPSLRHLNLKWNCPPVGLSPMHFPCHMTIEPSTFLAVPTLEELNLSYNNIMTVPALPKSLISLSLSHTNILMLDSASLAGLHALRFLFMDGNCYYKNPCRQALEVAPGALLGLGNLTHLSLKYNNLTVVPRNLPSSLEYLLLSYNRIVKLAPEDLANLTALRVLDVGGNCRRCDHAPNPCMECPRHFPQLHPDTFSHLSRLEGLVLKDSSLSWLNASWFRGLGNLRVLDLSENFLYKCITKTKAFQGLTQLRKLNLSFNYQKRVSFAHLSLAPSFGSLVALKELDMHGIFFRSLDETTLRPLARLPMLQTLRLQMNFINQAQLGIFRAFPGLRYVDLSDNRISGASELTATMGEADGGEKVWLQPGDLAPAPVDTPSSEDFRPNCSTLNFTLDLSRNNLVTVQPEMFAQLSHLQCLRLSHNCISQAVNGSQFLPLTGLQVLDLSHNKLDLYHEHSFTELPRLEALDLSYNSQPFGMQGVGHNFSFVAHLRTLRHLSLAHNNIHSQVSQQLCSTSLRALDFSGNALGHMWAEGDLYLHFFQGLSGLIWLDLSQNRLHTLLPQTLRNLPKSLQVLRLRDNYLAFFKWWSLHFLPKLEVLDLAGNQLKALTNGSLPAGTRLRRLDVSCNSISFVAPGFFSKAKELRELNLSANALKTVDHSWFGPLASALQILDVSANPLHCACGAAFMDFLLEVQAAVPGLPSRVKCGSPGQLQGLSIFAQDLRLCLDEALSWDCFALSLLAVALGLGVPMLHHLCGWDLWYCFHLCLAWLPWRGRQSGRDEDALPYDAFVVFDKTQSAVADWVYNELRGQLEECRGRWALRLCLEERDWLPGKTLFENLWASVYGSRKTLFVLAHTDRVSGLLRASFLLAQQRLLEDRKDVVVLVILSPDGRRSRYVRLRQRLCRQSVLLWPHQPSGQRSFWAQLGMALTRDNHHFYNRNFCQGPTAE
Description: HEK293-Blue-hTLR-9 cells assay (SEAP reporter, ODN2006 stimulation). Type of test: cell-based. The following applies: HEK293-Blue-hTLR9 cells, ODN2006, 20 hrs. The method, then:
The following tests were carried out in order to determine the activity of the compounds of formula (I) in HEK293-Blue-hTLR-7/8/9 cells assay.
HEK293-Blue-hTLR-9 Cells Assay:
A stable HEK293-Blue-hTLR-9 cell line was purchased from InvivoGen (Cat. #. hkb-htlr9, San Diego, Calif., USA). These cells were originally designed for studying the stimulation of human TLR9 by monitoring the activation of NF-κB. A SEAP (secreted embryonic alkaline phosphatase) reporter gene was placed under the control of the […] minimal promoter fused to five NF-κB and AP-1-binding sites. The SEAP was induced by activating NF-κB and AP-1 via stimulating HEK-Blue hTLR9 cells with TLR9 ligands. Therefore the reporter expression was declined by TLR9 antagonist under the stimulation of a ligand, such as ODN2006 (Cat. #: tlrl-2006-1, Invivogen, San Diego, Calif., USA), for incubation of 20 hrs. The cell culture supernatant SEAP reporter activity was determined using QUANTI-Blue™ kit (Cat. #: rep-qbl, Invivogen, San Diego, Calif., USA) at a wavelength of 640 nm, a detection medium that turns purple or blue in the presence of alkaline phosphatase.
HEK293-Blue-hTLR9 cells were incubated at a density of […] cells/mL in a volume of 170 μL, in a 96-well plate in Dulbecco's Modified Eagle's medium (DMEM) containing 4.5 g/L glucose, 50 U/mL penicillin, […], […], 2 mM L-glutamine, 10% (v/v) heat-inactivated fetal bovine serum with addition of 20 μL test compound in a serial dilution in the presence of final DMSO at 1% and 10 μL of 20 uM ODN2006 in above DMEM, perform incubation under 37° C. in a CO2 incubator for 20 hrs. Then 20 μL of the supernatant from each well was incubated with 180 μL Quanti-blue substrate solution at 37° C. for 2 hrs and the absorbance was read at 620˜655 nm using a spectrophotometer. The signalling pathway that TLR9 activation leads to downstream NF-κB activation has been widely accepted, and therefore similar reporter assay was modified for evaluating TLR9 antagonist.
As to `C[C@@H]1CN(c2ccc(C(F)(F)F)c3ncccc23)C[C@H](C(=O)N2CC(N)C2)O1` [Example 7, (3-aminoazetidin-1-yl)-[(2R,6R)-6-methyl-4-[8-(trifluoromethyl)-5-quinolyl]morpholin-2-yl]methanone], the IC50 is 68.5 µM.
`C[C@@H]1CN(c2ccc(C(F)(F)F)c3ncccc23)C[C@H](C(=O)NCCN2CCOCC2)O1` [Example 13, (2R,6R)-6-methyl-N-(2-morpholinoethyl)-4-[8-(trifluoromethyl)-5-quinolyl]morpholine-2-carboxamide] yielded an IC50 of over 100 µM.
In the case of `C[C@@H]1CN(c2ccc(C(F)(F)F)c3ncccc23)C[C@H](C(=O)NC2CC3COCC(C2)N3)O1` (stereo partly drawn) [Example 33, (2R,6R)-6-methyl-N-(3-oxa-9-azabicyclo[3.3.1]nonan-7-yl)-4-[8-(trifluoromethyl)-5-quinolyl]morpholine-2-carboxamide], half-maximal inhibition (IC50) required 23.6 µM.
Take `C[C@@H]1CN(c2ccc(C(F)(F)F)c3ncccc23)C[C@H](C(=O)NC2CCCNCC2)O1` (stereo partly drawn) [Example 8, (2R,6R)-N-(azepan-4-yl)-6-methyl-4-[8-(trifluoromethyl)-5-quinolyl]morpholine-2-carboxamide]: half-maximal inhibition (IC50) was put at 10.3 µM. Compared with the last compound, the IC50 is about 2.3-fold lower.
`C[C@@H]1CN(c2ccc(I)c3ncccc23)C[C@H](C(=O)NC2CCN(C)CC2)O1` [Example 38, (2R,6R)-4-(8-iodo-5-quinolyl)-6-methyl-N-(1-methyl-4-piperidyl)morpholine-2-carboxamide] yielded an IC50 of 6 µM.
For `C[C@@H]1CN(c2ccc(C(F)(F)F)c3ncccc23)C[C@H](C(=O)N2CCC3(CCNC3)C2)O1` (some centres unmarked) [Example 36] the value was 12.3 µM; for `C[C@@H]1CN(c2ccc(I)c3ncccc23)C[C@H](C(=O)NC2CNCC2F)O1` (stereo partly drawn) [Example 40, cis-(2R,6R)-N-[4-fluoropyrrolidin-3-yl]-4-(8-iodo-5-quinolyl)-6-methyl-morpholine-2-carboxamide], 22.4 µM; for `C[C@@H]1CN(c2ccc(C(F)(F)F)c3ncccc23)C[C@H](C(=O)NC2CC3CCC(C2)N3)O1` (single isomer, unassigned) [Example 47B], 10.5 µM.
`C[C@@H]1CN(c2ccc([N+](=O)[O-])c3ncccc23)C[C@H](C(=O)NC2CCN(C)CC2)O1` [Example 20, (2R,6R)-6-methyl-N-(1-methyl-4-piperidyl)-4-(8-nitro-5-quinolyl)morpholine-2-carboxamide] gave an IC50 of 14.9 µM.
For `C#Cc1ccc(N2C[C@@H](C)O[C@@H](C(=O)NC3CCN(C)CC3)C2)c2cccnc12` [Example 43, (2R,6R)-4-(8-ethynyl-5-quinolyl)-6-methyl-N-(1-methyl-4-piperidyl)morpholine-2-carboxamide] the value was 12.3 µM.
For `C[C@@H]1CN(c2ccc(Cl)c3ncccc23)C[C@H](C(=O)NC2CCN(C)CC2)O1` [Example 24, (2R,6R)-4-(8-chloro-5-quinolyI)-6-methyl-N-(1-methyl-4-piperidyl)morpholine-2-carboxamide], half-maximal inhibition (IC50) required 23.7 µM.
With `C[C@@H]1CN(c2ccc(Cl)c3ncccc23)C[C@H](C(=O)N[C@H]2CNC[C@H]2F)O1` [Example 22, (2R,6R)-4-(8-chloro-5-quinolyl)-N-[(3S,4R)-4-fluoropyrrolidin-3-yl]-6-methyl-morpholine-2-carboxamide], the IC50 was determined as 37 µM.
With `C[C@@H]1CN(c2ccc(C(F)(F)F)c3ncccc23)C[C@H](C(=O)NCC2CN(C)CCO2)O1` (stereo partly drawn) [Example 3, (2R,6R)-6-methyl-N-[(4-methylmorpholin-2-yl)methyl]-4-[8-(trifluoromethyl)-5-quinolyl]morpholine-2-carboxamide] the figure was 81.9 µM; with `C[C@@H]1CN(c2ccc(C(F)(F)F)c3ncccc23)C[C@H](C(=O)N[C@@H]2CNC[C@@H]2F)O1` (single isomer, unassigned) [Example 2A], 41 µM.
`C[C@H]1C[C@@H](N)CN(c2ccc(C(F)(F)F)c3ncccc23)C1` [Example 1, (3R,5S)-5-methyl-1-[8-(trifluoromethyl)-5-quinolyl]piperidin-3-amine] registered an IC50 of 9.7 µM.
Regarding `CC(NC(=O)[C@H]1CN(c2ccc(C(F)(F)F)c3ncccc23)C[C@@H](C)O1)C1CN(C)CCO1` (single isomer, unassigned) [Example 35B], the IC50 stood at 50.2 µM.
For `C[C@@H]1CN(c2ccc(C(F)(F)F)c3ncccc23)C[C@H](C(=O)N2CCC3(CCNCC3)CC2)O1` [Example 32, 3,9-diazaspiro[5.5]undecan-3-yl-[(2R,6R)-6-methyl-4-[8-(trifluoromethyl)-5-quinolyl]morpholin-2-yl]methanone] the value was 3.7 µM.
The compound `C[C@@H]1CN(c2ccc(I)c3ncccc23)C[C@H](C(=O)NCC2CN(C)CCO2)O1` (stereo partly drawn) [Example 39, (2R,6R)-4-(8-iodo-5-quinolyl)-6-methyl-N-[(4-methylmorpholin-2-yl)methyl]morpholine-2-carboxamide] displayed an IC50 of 35.8 µM. This IC50 is about 9.7-fold higher than that of the compound before.
`C[C@@H]1CN(c2ccc(C(F)(F)F)c3ncccc23)C[C@H](C(=O)NCC2COCCN2C)O1` (stereo partly drawn) [Example 11, (2R,6R)-6-methyl-N-[(4-methylmorpholin-3-yl)methyl]-4-[8-(trifluoromethyl)-5-quinolyl]morpholine-2-carboxamide] came in with a half-maximal inhibitory concentration (IC50) of over 100 µM.
Consider `C[C@@H]1CN(c2ccc(C(F)(F)F)c3ncccc23)C[C@H](C(=O)NC2C3CCCC2CNC3)O1` (stereo partly drawn) [Example 45, (2R,6R)-N-(3-azabicyclo[3.3.1]nonan-9-yl)-6-methyl-4-[8-(trifluoromethyl)-5-quinolyl]morpholine-2-carboxamide], for which half-maximal inhibition (IC50) required 11.6 µM.
As for `C[C@@H]1CN(c2ccc(C(F)(F)F)c3ncccc23)C[C@H](C(=O)NC2C3CNCC2COC3)O1` (single isomer, unassigned) [Example 46A], the IC50 amounted to 23 µM. This IC50 lies about 2-fold higher than the previous one.
Consider `C[C@@H]1CN(c2ccc(C(F)(F)F)c3ncccc23)C[C@H](C(=O)NCC2CNCC2(F)F)O1` (stereo partly drawn) [Example 29, (2R,6R)-N-[(4,4-difluoropyrrolidin-3-yl)methyl]-6-methyl-4-[8-(trifluoromethyl)-5-quinolyl]morpholine-2-carboxamide], for which the IC50 was over 100 µM.
For `C[C@H]1C[C@@H](N)CN(c2ccc(Cl)c3ncccc23)C1` [Example 23, (3R,5S)-1-(8-chloro-5-quinolyl)-5-methyl-piperidin-3-amine] the value was 7 µM; for `Cc1ccc(N2C[C@@H](C)O[C@@H](C(=O)N[C@@H]3CNC[C@@H]3F)C2)c2cccnc12` [Example 21, cis-(2R,6R)-N-14-fluoropyrrolidin-3-yl1-6-methyl-4-(8-methyl-5-quinolyl)morpholine-2carboxamide], 38 µM; for `C[C@@H]1CN(c2ccc(C(F)(F)F)c3ncccc23)C[C@H](C(=O)NC2C3CCC2CNC3)O1` (stereo partly drawn) [Example 31, (2R,6R)-N-(3-azabicyclo[3.2.1]octan-8-yl)-6-methyl-4-[8-(trifluoromethyl)-5-quinolyl]morpholine-2-carboxamide], 9.2 µM.
For `C[C@@H]1CN(c2ccc(C(F)(F)F)c3ncccc23)C[C@H](C(=O)NCC(C)(C)N)O1` [Example 6, (2R,6R)-N-(2-amino-2-methyl-propyl)-6-methyl-4-[8-(trifluoromethyl)-5-quinolyl]morpholine-2-carboxamide] the value was 29.8 µM.

A word on the IC50: it is the midpoint of a concentration-inhibition curve. A lower IC50 goes with greater potency.
